Data published in patent US20100144003A1, “INDUCTION OF MICROBIAL SECONDARY METABOLITES” (AQUAPHARM BIO-DISCOVERY LIMITED, priority 2007, published 2010).

Test system: Gram-positive bacterial strains
Assay: activity against Gram-positive bacterial strains
Assay type: cell-based
Conditions: compound produced by AQP4511 in PDY medium supplemented with 0.5 mM NaNO3
Method: A Streptomyces sp. strain AQP4511 produced a red orange compound, which has a naphthoquinone structure, in a PDY medium supplemented with 0.5 mM NaNO3.

## COc1cc(O)c2c(c1)C(=O)C1=C(C2=O)C(OC(C)=O)C(O)C(C)O1 (stereo not shown) [Gunacin]
  activity against most of Gram-positive bacterial strains: very strong activity
